The results in this text go back to patent publication US12319655B2, “RAF kinase inhibitors and methods of use thereof” (Deciphera Pharmaceuticals, LLC, priority 2021, dated 2025).

Molecules are shown by their SMILES. Where only a bound is given, the exact number is not on record here.

In one assay the test system is WM3629 cells. Put plainly: WM3629 Cell Proliferation Assay (2). In kind it is cell-based. On the procedure:
WM3629 Cell Proliferation Assay (2)
WM3629 cells (#WM3629-01-0001) are obtained from Rockland Immunochemicals Inc (Gilbertsville, PA). Briefly, cells were grown in MCDB 153 medium (Sigma, #M7403, St. Louis, MO) supplemented with 20% Leibovitz's L-15 (ThermoFisher #11415-064, Waltham, MA), 2% heat inactivated fetal bovine serum (ThermoFisher, #A3840001, Waltham, MA), 5 μg/mL Insulin (Bovine Pancreas) (Sigma, #I0516, St. Louis, MO), 1.68 mM Calcium Chloride (Sigma, #C-34006, St. Louis, MO) and 1% Penicillin/Streptomycin/L-Glutamine (ThermoFisher #10378016, Waltham, MA) at 37° C., 5% CO2, and 95% humidity. Cells are expanded until reaching 70-95% confluency at which point they are sub-cultured or harvested for assay use. Using the Beckman Coulter Echo 650, a serial dilution of test compound is dispensed into a 384-well black clear bottom plate in triplicate. One thousand one hundred twenty-five cells are added per well in 50 μL complete growth medium in the 384-well plate. Plates are incubated for 67-72 hours at 37° C., 5% CO2, and 95% humidity. At the end of the incubation, 10 μL of a 440 μM solution of resazurin (Sigma, #199303, St. Louis, MO) in PBS is added to each well of the plate and plates are incubated for an additional 3-6 hours at 37° C., 5% CO2, and 95% humidity. Plates are read on a Synergy2 or equivalent reader (Biotek, Winooski VT) using an excitation of 540 nm and an emission of 600 nm. Data is analyzed using Prism software (GraphPad, San Diego, CA) to calculate IC50 values.

For a further assay, the system named is Miapaca-2 cells. Put plainly: MiaPaca-2 Combination Cell Proliferation Assay (2) with cobimetinib. In kind it is cell-based. Conditions: MiaPaca-2 cell proliferation, read-out: MiaPaca-2 Combo (2) IC50. The protocol:
MiaPaca-2 Combination Cell Proliferation Assay (2)
Miapaca-2 cells (catalog #CRL-1420) are obtained from the American Type Culture Collect (ATCC, Manassas, VA). Briefly, cells were grown in DMEM supplemented with 10% characterized fetal bovine serum (Invitrogen, Carlsbad, CA), 2.5% New Zealand sourced horse serum and 1% Penicillin/Streptomycin/L-Glutamine at 37° C., 5% CO2, and 95% humidity. Cells are expanded until reaching 70-95% confluency at which point they are subcultured or harvested for assay use. Using the Beckman Coulter Echo 650, a threefold, 8-point serial dilution of compound was spotted column wise into a 384 well black, clear bottom, tissue culture treated plate. Likewise, a threefold, 8-point serial dilution of cobimetinib was spotted row wise into the 384 well black, clear bottom plate containing compound. DMSO concentration was constant across all wells at 0.4%. Seven hundred fifty cells are added per well in 50 μL complete growth medium in each 384-well plate. Plates are incubated for 67-72 hours at 37° C., 5% CO2, and 95% humidity. At the end of the incubation, 10 μL of a 440 μM solution of resazurin (Sigma, St. Louis, MO) in PBS is added to each well of the plate and plates are incubated for an additional 4-6 hours at 37° C., 5% CO2, and 95% humidity. Plates are read on a Synergy2 or equivalent reader (Biotek, Winooski VT) using an excitation of 540 nm and an emission of 600 nm. Drug synergy was assessed via BLISS analysis in the Combenefit software (Cancer Research UK Cambridge Institute, Cambridge, UK). Data is analyzed using Prism software (Graphpad, San Diego, CA) to calculate IC50 values. Shifts in test compound IC50 values are reported from top-constrained combination therapy curves.

The IC50 is the concentration that gives 50% inhibition. For `CNC(=O)c1cc(-c2cc(-c3cc(NC(=O)c4ccnc(C(C)(C)F)c4)ccc3Cl)ccn2)ccn1` [Example 485], in the assay with WM3629 cells, the IC50 was at most 0.1 µM.

`Cc1ccc(NC(=O)c2ccnc(C(C)(C)F)c2)cc1-c1cnnc(-c2ccnc(C(N)=O)c2)c1` [Example 486]: the figures for the IC50 in the assay on Miapaca-2 cells and in the assay with WM3629 cells were 1 to 10 µM and at most 0.1 µM, respectively. On the same counts, the results for `CNC(=O)c1cc(-c2cc(-c3cc(NC(=O)c4ccnc(C5(F)CC5)c4)ccc3C)ccn2)ccn1` [Example 487] are 0.1 to 0.5 µM and at most 0.1 µM. Consider `Cc1ccc(NC(=O)c2ccnc(C(C)(C)F)c2)cc1-c1cc(-c2ccnc(C(N)=O)c2)ncn1` [Example 488], for which, in the assay with WM3629 cells, the IC50 is at most 0.1 µM. Consider `[2H]C([2H])([2H])NC(=O)c1cc(-c2cc(-c3cc(NC(=O)c4ccnc(C(C)(C)F)c4)ccc3C)ccn2)ccn1` [Example 489], for which the results for the concentration for half-maximal inhibition (IC50) with Miapaca-2 cells and with WM3629 cells were 0.1 to 0.5 µM and at most 0.1 µM, respectively. Consider `Cc1ccc(NC(=O)c2ccnc(C(C)(C)F)c2)cc1-c1cc(-c2ccnc(C(N)=O)c2)ncc1F` [Example 490], for which the IC50 in the assay on WM3629 cells is at most 0.1 µM. Take `CC(C)(F)c1cc(C(=O)Nc2ccc(F)c(-c3ccnc(-c4ccnc(C(N)=O)c4)c3)c2)ccn1` [Example 491]: the IC50 in the assay with WM3629 cells is at most 0.1 µM. Still for that read-out and setting: next, `CNC(=O)c1cc(-c2cc(-c3cc(NC(=O)c4cnnc(C(C)(F)F)c4)ccc3C)ccn2)ccn1` [Example 492]: at most 0.1 µM. Consider `[2H]C([2H])([2H])NC(=O)c1cc(-c2cc(-c3cc(NC(=O)c4ccnc(C(C)(C)F)c4)ccc3C)cc(C)n2)ccn1` [Example 493], for which the IC50 in the assay with Miapaca-2 cells was 0.1 to 0.5 µM; in the assay on WM3629 cells, at most 0.1 µM. Regarding `CNC(=O)c1cc(-c2cc(-c3cc(NC(=O)c4ccnc(C(C)(C)F)n4)ccc3C)ccn2)ccn1` [Example 494], the half-inhibitory concentration (IC50) in the assay with WM3629 cells was at most 0.1 µM. On the same count and under the same terms, next, `CNC(=O)c1cc(-c2cc(-c3cc(NC(=O)c4cnnc(C(C)(C)F)c4)ccc3C)ccn2)ccn1` [Example 495]: at most 0.1 µM; `CNC(=O)c1cc(-c2cc(-c3cc(NC(=O)c4ccnc(C5(F)CC5)c4)ccc3C)cc(C)n2)ccn1` [Example 496]: at most 0.1 µM.

On to `CNC(=O)c1cc(-c2cc(-c3cc(NC(=O)c4ccnc(C(C)(C)F)c4)c(F)cc3C)ccn2)ccn1` [Example 497], for which the IC50 with WM3629 cells is at most 0.1 µM. As for `[2H]C([2H])([2H])NC(=O)c1cc(-c2cc(-c3cc(NC(=O)c4ccnc(C5(F)CC5)c4)ccc3C)cc(C)n2)ccn1` [Example 498], the IC50 in the assay on WM3629 cells was at most 0.1 µM. Consider `CNC(=O)c1cc(-c2cc(-c3cc(NC(=O)c4ccnc(C(C)(C)F)c4)ncc3C)ccn2)ccn1` [Example 499], for which the half-maximal inhibitory concentration (IC50) in the assay with WM3629 cells is at most 0.1 µM. In the case of `Cc1ccc(NC(=O)c2cn(C)nc2C(F)(F)F)cc1-c1cncc(-c2ccnc(NC(=O)C3CC3)c2)c1` [Example 500], the half-inhibitory concentration (IC50) in the assay on WM3629 cells is at most 0.1 µM. Still for that read-out and setting: next, `Cc1ccc(NC(=O)c2ccc(C(F)(F)F)cc2)cc1-c1ccnc(-c2ccnc(NC(=O)C3CC3)c2)c1` [Example 501]: at most 0.1 µM. On to `Cc1ccc(NC(=O)c2cccc(C(F)(F)F)c2)cc1-c1ccnc(-c2ccnc(NC(=O)C3CC3)c2)c1` [Example 502], for which the concentration for half-maximal inhibition (IC50) in the assay on WM3629 cells is at most 0.1 µM. In the case of `Cc1ccc(NC(=O)c2cc(C(F)(F)F)ccc2F)cc1-c1ccnc(-c2ccnc(NC(=O)C3CC3)c2)c1` [Example 503], the half-maximal inhibitory concentration (IC50) with WM3629 cells was at most 0.1 µM.
